# From the NIST ThermoML archive (doi:10.1021/acs.jced.7b00321)
# Numbers after ± are expanded uncertainties.
# Conditions: 101 kPa, Liquid; for viscosity: Capillary tube (Ostwald / Ubbelohde) method; for mass density: Vibrating tube method
SMILES,viscosity (293.15 K),mass density (293.15 K),viscosity (303.15 K),mass density (303.15 K),viscosity (313.15 K),mass density (313.15 K),viscosity (323.15 K),mass density (323.15 K)
CC(O)CN (stereo not given) [1-amino-2-propanol],30.44 ± 0.65 mPa·s,960.81 ± 1 kg/m3,17.87 ± 0.39 mPa·s,952.25 ± 1 kg/m3,10.79 ± 0.23 mPa·s,944.43 ± 1 kg/m3,6.99 ± 0.15 mPa·s,936.21 ± 1 kg/m3
NCCCO [3-amino-1-propanol],40.26 ± 0.86 mPa·s,987.5 ± 1 kg/m3,24.03 ± 0.52 mPa·s,979.45 ± 1 kg/m3,15.08 ± 0.32 mPa·s,971.67 ± 1 kg/m3,10.01 ± 0.22 mPa·s,963.36 ± 1 kg/m3
NCCNCCO [N-(2-aminoethyl)ethanolamine],136.19 ± 3.6 mPa·s,1029.14 ± 1 kg/m3,71.64 ± 1.6 mPa·s,1021.45 ± 1 kg/m3,39.59 ± 0.86 mPa·s,1014.18 ± 1 kg/m3,23.41 ± 0.52 mPa·s,1006.54 ± 1 kg/m3
NCCNCCN [di(2-aminoethyl)amine],6.99 ± 0.15 mPa·s,951.16 ± 1 kg/m3,4.79 ± 0.1 mPa·s,942.19 ± 1 kg/m3,3.45 ± 0.07 mPa·s,933.93 ± 1 kg/m3,2.6 ± 0.06 mPa·s,925.42 ± 1 kg/m3
CCO [ethanol],1.17 ± 0.02 mPa·s,788.88 ± 1 kg/m3,0.97 ± 0.02 mPa·s,781.69 ± 1 kg/m3,0.81 ± 0.02 mPa·s,772.3 ± 1 kg/m3,0.69 ± 0.02 mPa·s,765.29 ± 1 kg/m3
